Laboratory results as given in patent US4775677A, “[3-substituted-2-(substituted imino)-4-oxo-5-thiazolidinylidene]acetic acids having activity as leukotriene antagonists” (Warner-Lambert Company, priority 1987, dated 1988).

Target: leukotriene receptor
Assay: leukotriene receptor binding assay (RBL-1)
Conditions: Bruns et al
Description: The usefulness of the compounds of Formula I is particularly directed to the treatment of humans. By virtue of the activity of the compounds having the Formula I of the present invention as antagonists of Slow Reacting Substance of Anaphylaxis (leukotrienes C, D, and E) are useful in the treatment of allergic rhinitis, asthma, bronchitis, and urticaria. They are also particularly useful for the treatment of cardiovascular diseases mediated by leukotrienes, C, D, and E. See B. Samuelsson, "Leukotrienes: Mediators of Immediate Hypersensitivity Reactions and Inflammation,"Science, Vol. 220, p. 568 (1983); P. J. Piper, "Leukotrienes," Trends in Pharmaceutic Sciences, pp. 75-77 (1983; and J. L. Romson, et al, "Reduction of the Extent of Ischemic Myocardial Injury by Neutrophil Depletion in the Dog," Circulation, Vol. 67, p. 1016 (1983). The activity of the compounds I of the present invention is determined in a leukotriene receptor binding assay (RBL-1) described by R. F. Bruns, W. J. Thomsen, and T. A. Pugsley in Life Sciences, 33, p. 645 (1983).
When tested by the procedures in a leukotriene receptor binding assay (RBL-1) as described by Bruns et al cited above, the compounds of the Formula I as defined in the present invention have the indicated activity as shown in Table 5 as IC50 values expressed in μMs (micromolar).

`CCCCCCCCN=C1SC(=CC(=O)O)C(=O)N1CCCCCCCC` [Example 1, [3-Octyl-2-(octylimino)-4-oxo-5-thiazolidinylidene]acetic acid] was tested, and the IC50 was 19 µM.
`CCN=C1SC(=CC(=O)O)C(=O)N1CC` [Example 2, [3-Ethyl-2-(ethylimino)-4-oxo-5-thiazolidinylidene]acetic acid] gave an IC50 of over 100 µM.
For `CCCCCN=C1SC(=CC(=O)O)C(=O)N1CCCCC` [Example 3, [3-Pentyl-2-(pentylimino)-4-oxo-5-thiazolidinylidene]acetic acid], the IC50 was 15.4 µM.
`CCCCCCN=C1SC(=CC(=O)O)C(=O)N1CCCCCC` [Example 4, [3-Hexyl-2-(hexylimino)-4-oxo-5-thiazolidinylidene]acetic acid] showed an IC50 of 24.5 µM.
With `COc1cc(N=C2SC(=CC(=O)O)C(=O)N2c2cc(OC)c(OC)c(OC)c2)cc(OC)c1OC` [Example 6, [4-Oxo-3-(3,4,5-trimethoxyphenyl)-2-[(3,4,5-trimethoxyphenyl)imino]-5-thiazolidinylidene]acetic acid] the IC50 was over 100 µM.
`COc1ccc(N=C2SC(=CC(=O)O)C(=O)N2c2ccc(OC)cc2)cc1` [Example 7, [4-Oxo-3-(4-methoxyphenyl)-2-[(4-methoxyphenyl)imino]-5-thiazolidinylidene]acetic acid] gave an IC50 of over 100 µM.
For `CCCN=C1SC(=CC(=O)O)C(=O)N1CCC` [Example 8, [4-Oxo-3-propyl-2-(propylimino)-5-thiazolidinylidene]acetic acid], the IC50 was over 100 µM.
Work on `CCCCN=C1SC(=CC(=O)O)C(=O)N1CCCC` [Example 9, [3-Butyl-2-(butylimino)-4-oxo-5-thiazolidinylidene]acetic acid] yielded an IC50 of over 100 µM.
`COc1ccccc1N=C1SC(=CC(=O)O)C(=O)N1c1ccccc1OC` [Example 10, [3-(2-Methoxyphenyl)-2-[(2-methoxyphenyl)imino]-4-oxo-5-thiazolidinylidene]acetic acid] showed an IC50 of over 100 µM.
For `CCCCCCN1C(=O)C(=CC(=O)O)SC1=Nc1ccc(Cl)c(Cl)c1` [Example 11, [2-[(3,4-dichlorophenyl)imino]-3-hexyl-4-oxo-5-thiazolidinylidene]acetic acid], the IC50 was 12.2 µM.
`CN1C(=O)C(=CC(=O)O)SC1=Nc1ccc(Cl)c(Cl)c1` [Example 12, [2-[(3,4-dichlorophenyl)imino]-3-methyl-4-oxo-5-thiazolidinylidene]acetic acid] was tested, and the IC50 was over 100 µM.
With `CCCCCCN1C(=O)C(=CC(=O)O)SC1=Nc1ccccc1` [Example 13, [3-Hexyl-4-oxo-2-(phenylimino)-5-thiazolidinylidene]acetic acid] the IC50 was 39.2 µM.
`O=C(O)C=C1SC(=NCCc2ccccc2)N(CCc2ccccc2)C1=O` [Example 15, [4-Oxo-3-(2-phenylethyl)-2-[(2-phenylethyl)imino]-5-thiazolidinylidene]acetic acid] gave an IC50 of over 100 µM.
With `CCCCCCCCCCCN=C1SC(=CC(=O)O)C(=O)N1CCCCCCCCCCC` [Example 16, [3-Undecyl-2-(undecylimino)-4-oxo-5-thiazolidinylidene]acetic acid] the IC50 was over 100 µM.
Work on `CCCCCCN1C(=O)C(=CC(=O)O)SC1=Nc1cccc2ccccc12` [Example 17, [3-Hexyl-2-[(1-naphthalenyl)imino]-4-oxo-5-thiazolidinylidene]acetic acid] yielded an IC50 of 10.3 µM.
Compound `CCCCCCCN=C1SC(=CC(=O)O)C(=O)N1CCCCCCC` [Example 18, [3-Heptyl-2-(heptylimino)-4-oxo-5-thiazolidinylidene]acetic acid] has an IC50 of 12.7 µM.
Compound `CCCCCCCCCCN=C1SC(=CC(=O)O)C(=O)N1CCCCCCCCCC` [Example 19, [3-Decyl-2-(decylimino)-4-oxo-5-thiazolidinylidene]acetic acid] has an IC50 of over 100 µM.
Work on `CCCCCCCCCCCCN=C1SC(=CC(=O)O)C(=O)N1CCCCCCCCCCCC` [Example 20, [3-Dodecyl-2-(dodecylimino)-4-oxo-5-thiazolidinylidene]acetic acid] yielded an IC50 of over 100 µM.
`O=C(O)C=C1SC(=Nc2ccc(Cl)c(Cl)c2)N(c2ccc(Cl)c(Cl)c2)C1=O` [Example 21, [4-oxo-3-(3,4-dichlorophenyl)-2-[(3,4-dichlorophenyl)imino]-5-thiazolidinylidene]acetic acid] was tested, and the IC50 was 15.6 µM.
`O=C(O)C=C1SC(=Nc2ccc(Br)c(Br)c2)N(c2ccc(Br)c(Br)c2)C1=O` [Example 22, [4-Oxo-3-(3,4-dibromophenyl)-2-[(3,4-dibromophenyl)imino]-5-thiazolidinylidene]acetic acid] was tested, and the IC50 was 18.9 µM.
`O=C(O)C=C1SC(=Nc2cc(Cl)c(Cl)c(Cl)c2)N(c2cc(Cl)c(Cl)c(Cl)c2)C1=O` [Example 23] was tested, and the IC50 was 13.1 µM.
`COc1cccc(N=C2SC(=CC(=O)O)C(=O)N2c2cccc(OC)c2)c1` [Example 24, [3-(3-Methoxyphenyl)-2-[(3-methoxyphenyl)imino]-4-oxo-5-thiazolidinylidene]acetic acid] was tested, and the IC50 was over 100 µM.
With `O=C(O)C=C1SC(=NC2CCCCC2)N(C2CCCCC2)C1=O` [Example 25, [3-Cyclohexyl-2-(cyclohexylimino)-4-oxo-5-thiazolidinylidene]acetic acid] the IC50 was 62.5 µM.
